Test results published in patent US20240082260A1, “INHIBITOR OF PROTEIN KINASE D FOR USE IN PREVENTION OR TREATMENT OF HYPERLIPIDEMIA” (priority 2021, published 2024).

Experiments:
Caco2 cells = assay: Lipid transport (14C-fatty acid release) through Caco2 monolayer in transwell system; format: cell-based, human; conditions: 24 h
Protocol: Lipid transport studies were assessed in Caco2 cells seeded in trans-wells. 1.5×10^5 cells were seeded into a 12-well cell culture insert of 1 μm pore size Trans-well and maintained in for 14 consecutive days with media change every two days. For the lipids uptake and release, the apical side of the membrane was loaded with radioactive ^14C-palmitic acid (0.2 μCi), oleic acid (1 mM), and taurocholic acid (2 mM) in DMEM high glucose 10% FBS. The basal medium contained DMEM high glucose 0.1% FBS. After 24 hours of incubation, cell lysates and the apical and basolateral medium was collected and the ^14C-palmitic acid was measured in a scintillation counter for aliquots of apical and basal medium and for cell lysate. The same protocol was used in Caco2 cells that were treated with CRT0066101 (3 and 5 μM) for 24 h (added together with the mentioned radioactive fatty acid cocktail).
In order to test the potential of PKD inhibitors to restrict lipid transport via epithelial monolayer, we employed Caco2 cells seeded into the Transwells system. Briefly, we plated 1.5×10^5 cells seeded into a 12-well cell culture inserts of 1-μm pore size Transwell and maintained in for 14 consecutive days with media change every 2 days. For the lipid uptake and release, the apical side of the membrane was loaded with radioactive 14C-palmitic acid (0.2 μCi), oleic acid (1 mM), and taurocholic acid (2 mM) in DMEM high glucose 10% FBS. The basal medium contained DMEM high glucose 0.1% FBS. After 24 h of incubation, cell lysates and the apical and basolateral medium were collected and the 14C-palmitic acid was measured in a scintillation counter for aliquots of apical and basal medium and for cell lysate. To assess the efficiency of different PKD inhibitors, Caco2 cells were treated with either CRT0066101 (5 μM), CID2011756 (20 μM), CID755673 (20 μM), 1-NM-PP1 (20 μM), or control solvent solution (DMSO) for 24 h (added together with the mentioned radioactive FA cocktail).

PKD 1/2 = conditions: oral, dose 8 times higher than used here, cited from earlier work

CC[C@@H](N)CNc1ccnc(-c2cc(-c3cnn(C)c3)ccc2O)n1 [CRT0066101]
lipid transport through the Caco2 monolayer (Caco2 cells; 5 μM, vs DMSO, FIG. 8): significant reduction in lipid transport
TG secretion (basolateral release of 14C-labeled fatty acids) (Caco2 cells; Caco2 transwell, 3 and 5 μM, FIG. 6A): reduces TG secretion in a dose dependent manner
reduction in PKD 1/2 activation (PKD 1/2; pancreatic tumors): 50%
time of highest concentrations in pancreatic tumors (PKD 1/2): 2 h
